How the values were obtained:
Format in all cases: cell-based
Candida tropicalis = test: Broth microdilution (M27-A3, M27-S4), gold standard culture-based AST
Candida albicans = test: as above
Description: Step 1. Sample collection and drug susceptibility verification: 120 clinical Candida albicans isolates were collected from 31 hospitals across china in a period between September 2015 and January 2019. All isolates were tested for drug susceptibility using broth microdilution method following the M27-A3 and M27-S4 guidelines of NCCLS, and the results were used as the gold standard (culture-based AST).

Enterococcus faecalis = test: VITEK2 Compact AST (AST-P639 cards), gold standard culture-based AST
Streptococcus pneumoniae = test: VITEK2 Compact AST (AST-GP68 cards) with penicillin disc diffusion, gold standard culture-based AST
Description: (§1) Step 1. Drug susceptibility verification: The Streptococcus pneumoniae isolates were tested for drug susceptibility using bioMérieux Vitek2 Compact System and AST-GP68 cards, and specifically, the susceptibility of penicillin was double checked by disc diffusion method (OXOID, CT0043B), and the combined results were used as the gold standard (culture-based AST).
as §1, with “Sample collection and drug” for “Drug”, “48 clinical” for “The”, “pneumoniae isolates were collected from 18 hospitals across china in a period between May 2017 and October 2019. All” for “pneumoniae”, “card,” for “cards,”

Acinetobacter baumannii = test: VITEK2 Compact AST (AST-N335 cards), gold standard culture-based AST
Description: Step 1. Drug susceptibility verification: The Acinetobacter baumannii isolates were tested for drug susceptibility using bioMérieux Vitek2 Compact System and AST-N335 cards, and the results were used as the gold standard (culture-based AST).

[1] = Resistance profile classification A
[2] = Resistance profile classification B
[3] = Resistance profile classification C
[4] = Resistance profile classification D
[5] = Resistance profile classification G
[6] = Resistance profile classification H
[7] = Resistance profile classification I
[8] = Resistance profile classification J
[9] = Resistance profile classification K
[10] = Resistance profile classification L
[11] = Resistance profile classification M
[12] = Resistance profile classification S
[13] = Resistance profile classification E
[14] = Resistance profile classification F
[15] = Resistance profile classification F (first line so labelled, r12)
[16] = Resistance profile classification F (second line so labelled, r13)

SMILES | Resistance profiles by broth microdilution (the gold standard) (Candida tropicalis; blind-1) | Resistance profiles by broth microdilution (the gold standard) (Candida tropicalis; blind-2) | Resistance profiles by broth microdilution (the gold standard) (Candida tropicalis; blind-3) | Resistance profiles by broth microdilution (the gold standard) (Candida tropicalis; blind-4) | Resistance profiles by broth microdilution (the gold standard) (Candida tropicalis; blind-5) | Resistance profiles by broth microdilution (the gold standard) (Candida tropicalis; blind-6) | Susceptibility of Emterococcus faecalis to 11 antibacterial drugs (Enterococcus faecalis; [1]) | Susceptibility of Emterococcus faecalis to 11 antibacterial drugs (Enterococcus faecalis; [2]) | Susceptibility of Emterococcus faecalis to 11 antibacterial drugs (Enterococcus faecalis; [3]) | Susceptibility of Emterococcus faecalis to 11 antibacterial drugs (Enterococcus faecalis; [4]) | Susceptibility of Emterococcus faecalis to 11 antibacterial drugs (Enterococcus faecalis; [5]) | Susceptibility of Emterococcus faecalis to 11 antibacterial drugs (Enterococcus faecalis; [6]) | Susceptibility of Emterococcus faecalis to 11 antibacterial drugs (Enterococcus faecalis; [7]) | Susceptibility of Emterococcus faecalis to 11 antibacterial drugs (Enterococcus faecalis; [8]) | Susceptibility of Emterococcus faecalis to 11 antibacterial drugs (Enterococcus faecalis; [9]) | Susceptibility of Emterococcus faecalis to 11 antibacterial drugs (Enterococcus faecalis; [10]) | Susceptibility of Emterococcus faecalis to 11 antibacterial drugs (Enterococcus faecalis; [11]) | Susceptibility of Emterococcus faecalis to 11 antibacterial drugs (Enterococcus faecalis; [12]) | Blind 1 by AST (Streptococcus pneumoniae) | blind 2 by AST (Streptococcus pneumoniae) | other results
Nc1nc(=O)[nH]cc1F [5-FC] | S | S | S | S | S | S |  |  |  |  |  |  |  |  |  |  |  |  |  |  | 
Nc1nc(=O)[nH]cc1F [5-Fluorocytosine] |  |  |  |  |  |  |  |  |  |  |  |  |  |  |  |  |  |  |  |  | Results by broth microdilution method: R (Candida albicans; number of resistant among 12 blinds): 4; Results by broth microdilution method: S (Candida albicans; number of susceptible among 12 blinds): 8
C[C@@H]1[C@H](O)[C@@H](C)/C=C/C=C/C=C/C=C/C=C/C=C/C=C/[C@H](O[C@@H]2O[C@H](C)[C@@H](O)[C@H](N)[C@@H]2O)C[C@@H]2O[C@](O)(C[C@@H](O)C[C@@H](O)[C@H](O)CC[C@@H](O)C[C@@H](O)CC(=O)O[C@H]1C)C[C@H](O)[C@H]2C(=O)O [AMB] | S | S | S | S | S | S |  |  |  |  |  |  |  |  |  |  |  |  |  |  | 
CC[C@H](C)C[C@H](C)CCCCCCCCC(=O)N[C@H]1C[C@@H](O)[C@@H](NCCN)NC(=O)[C@@H]2[C@@H](O)CCN2C(=O)[C@H]([C@H](O)CCN)NC(=O)[C@H]([C@H](O)[C@@H](O)c2ccc(O)cc2)NC(=O)[C@@H]2C[C@@H](O)CN2C(=O)[C@H]([C@@H](C)O)NC1=O [CAS] | S | S | S | S | S | S |  |  |  |  |  |  |  |  |  |  |  |  |  |  | 
CCC(C)n1ncn(-c2ccc(N3CCN(c4ccc(OCC5COC(Cn6cncn6)(c6ccc(Cl)cc6Cl)O5)cc4)CC3)cc2)c1=O (stereo not drawn) [ITR] | R | S | R | R | S | S |  |  |  |  |  |  |  |  |  |  |  |  |  |  | 
C[C@@H](c1ncncc1F)[C@](O)(Cn1cncn1)c1ccc(F)cc1F [VOR] | R | S | R | R | S | S |  |  |  |  |  |  |  |  |  |  |  |  |  |  | 
CC(=O)NC[C@H]1CN(c2ccc(N3CCOCC3)c(F)c2)C(=O)O1 [linezolid] |  |  |  |  |  |  | S | S | S | S | S | S | S | S | S | S | S | S | S | S | 
CCN1CCN(C(=O)N[C@@H](C(=O)N[C@@H]2C(=O)N3[C@@H]2SC(C)(C)[C@@H]3C(=O)O)c2ccccc2)C(=O)C1=O [pipercillin, piperacillin] |  |  |  |  |  |  |  |  |  |  |  |  |  |  |  |  |  |  |  |  | Suscepibility of Acinetobacter baumannii to 12 antibacterial drugs (Acinetobacter baumannii; [1]): R; Suscepibility of Acinetobacter baumannii to 12 antibacterial drugs (Acinetobacter baumannii; [2]): R; Suscepibility of Acinetobacter baumannii to 12 antibacterial drugs (Acinetobacter baumannii; [3]): R; Suscepibility of Acinetobacter baumannii to 12 antibacterial drugs (Acinetobacter baumannii; [4]): R; Suscepibility of Acinetobacter baumannii to 12 antibacterial drugs (Acinetobacter baumannii; [13]): R; Suscepibility of Acinetobacter baumannii to 12 antibacterial drugs (Acinetobacter baumannii; [14]): R; Suscepibility of Acinetobacter baumannii to 12 antibacterial drugs (Acinetobacter baumannii; [5]): R; Suscepibility of Acinetobacter baumannii to 12 antibacterial drugs (Acinetobacter baumannii; [6]): R; Suscepibility of Acinetobacter baumannii to 12 antibacterial drugs (Acinetobacter baumannii; [7]): R; Suscepibility of Acinetobacter baumannii to 12 antibacterial drugs (Acinetobacter baumannii; [8]): R; Suscepibility of Acinetobacter baumannii to 12 antibacterial drugs (Acinetobacter baumannii; [9]): R; Suscepibility of Acinetobacter baumannii to 12 antibacterial drugs (Acinetobacter baumannii; [10]): R; Suscepibility of Acinetobacter baumannii to 12 antibacterial drugs (Acinetobacter baumannii; [11]): R; Suscepibility of Acinetobacter baumannii to 12 antibacterial drugs (Acinetobacter baumannii; Resistance profile classification N): R; Suscepibility of Acinetobacter baumannii to 12 antibacterial drugs (Acinetobacter baumannii; Resistance profile classification O): S; Suscepibility of Acinetobacter baumannii to 12 antibacterial drugs (Acinetobacter baumannii; Resistance profile classification P): S; Suscepibility of Acinetobacter baumannii to 12 antibacterial drugs (Acinetobacter baumannii; Resistance profile classification Q): S; Suscepibility of Acinetobacter baumannii to 12 antibacterial drugs (Acinetobacter baumannii; Resistance profile classification R): S; Suscepibility of Acinetobacter baumannii to 12 antibacterial drugs (Acinetobacter baumannii; [12]): S
CN(C)[C@@H]1C(O)=C(C(N)=O)C(=O)[C@@]2(O)C(O)=C3C(=O)c4c(O)cccc4[C@@](C)(O)[C@H]3C[C@@H]12 [tetracycline] |  |  |  |  |  |  | R | S | S | S | R | R | S | R | R | S | R | S | R | R | Susceptibility of Emterococcus faecalis to 11 antibacterial drugs (Enterococcus faecalis; [15]): S; Susceptibility of Emterococcus faecalis to 11 antibacterial drugs (Enterococcus faecalis; [16]): R; Susceptibility of Streptococcus pneumoniae to 14 antibacterial drugs (Streptococcus pneumoniae; [1]): R; Susceptibility of Streptococcus pneumoniae to 14 antibacterial drugs (Streptococcus pneumoniae; [2]): R; Susceptibility of Streptococcus pneumoniae to 14 antibacterial drugs (Streptococcus pneumoniae; [3]): S; Susceptibility of Streptococcus pneumoniae to 14 antibacterial drugs (Streptococcus pneumoniae; [4]): S; Susceptibility of Streptococcus pneumoniae to 14 antibacterial drugs (Streptococcus pneumoniae; [13]): S; Susceptibility of Streptococcus pneumoniae to 14 antibacterial drugs (Streptococcus pneumoniae; [14]): S; Susceptibility of Streptococcus pneumoniae to 14 antibacterial drugs (Streptococcus pneumoniae; [5]): S; Susceptibility of Streptococcus pneumoniae to 14 antibacterial drugs (Streptococcus pneumoniae; [6]): S; Susceptibility of Streptococcus pneumoniae to 14 antibacterial drugs (Streptococcus pneumoniae; [7]): S; Susceptibility of Streptococcus pneumoniae to 14 antibacterial drugs (Streptococcus pneumoniae; [8]): R; Susceptibility of Streptococcus pneumoniae to 14 antibacterial drugs (Streptococcus pneumoniae; [12]): S
CN[C@H](CC(C)C)C(=O)N[C@H]1C(=O)N[C@@H](CC(N)=O)C(=O)N[C@H]2C(=O)N[C@H]3C(=O)N[C@H](C(=O)N[C@H](C(=O)O)c4cc(O)cc(O)c4-c4cc3ccc4O)[C@H](O)c3ccc(c(Cl)c3)Oc3cc2cc(c3O[C@@H]2O[C@H](CO)[C@@H](O)[C@H](O)[C@H]2O[C@H]2C[C@](C)(N)[C@H](O)[C@H](C)O2)Oc2ccc(cc2Cl)[C@H]1O [vancomycin] |  |  |  |  |  |  | S | S | S | S | S | S | S | S | S | S | S | S | S | S | Susceptibility of Emterococcus faecalis to 11 antibacterial drugs (Enterococcus faecalis; [15]): S; Susceptibility of Emterococcus faecalis to 11 antibacterial drugs (Enterococcus faecalis; [16]): S
